Experimental findings from ChEMBL document CHEMBL2163330, “Dynamic modeling of human 5-lipoxygenase-inhibitor interactions helps to discover novel inhibitors” (J Med Chem, 2012) are described below.

Assay [1] deals with T1, Polyunsaturated fatty acid 5-lipoxygenase (Homo sapiens, UniProt P09917).
T1 sequence (P09917 whole entry): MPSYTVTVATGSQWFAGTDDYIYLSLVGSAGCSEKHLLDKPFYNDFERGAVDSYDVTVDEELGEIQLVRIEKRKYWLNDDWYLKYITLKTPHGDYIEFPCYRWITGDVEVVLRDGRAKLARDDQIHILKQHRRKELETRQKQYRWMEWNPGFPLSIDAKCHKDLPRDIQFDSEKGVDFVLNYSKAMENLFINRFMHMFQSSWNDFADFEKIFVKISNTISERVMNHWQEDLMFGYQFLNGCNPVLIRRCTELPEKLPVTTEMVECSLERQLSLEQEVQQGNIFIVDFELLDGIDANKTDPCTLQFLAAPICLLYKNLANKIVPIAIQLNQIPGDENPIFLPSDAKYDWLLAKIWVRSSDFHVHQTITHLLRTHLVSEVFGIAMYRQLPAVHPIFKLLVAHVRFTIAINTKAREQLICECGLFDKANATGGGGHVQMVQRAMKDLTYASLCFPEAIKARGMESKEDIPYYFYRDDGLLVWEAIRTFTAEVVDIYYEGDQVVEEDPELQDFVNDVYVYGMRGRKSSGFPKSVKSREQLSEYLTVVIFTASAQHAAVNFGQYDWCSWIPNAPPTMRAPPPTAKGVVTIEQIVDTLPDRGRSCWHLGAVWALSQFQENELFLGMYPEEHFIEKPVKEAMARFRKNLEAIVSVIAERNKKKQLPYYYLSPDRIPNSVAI
In words: Inhibition of human recombinant 5-LOX expressed in Escherichia coli […] incubated 10 mins before substrate addition by fluorescence spectrophotometry based cell free system assay.

For assay [2], the target named is T2, Leukotriene A-4 hydrolase (Homo sapiens) (UniProt P09960).
T2 sequence (whole entry): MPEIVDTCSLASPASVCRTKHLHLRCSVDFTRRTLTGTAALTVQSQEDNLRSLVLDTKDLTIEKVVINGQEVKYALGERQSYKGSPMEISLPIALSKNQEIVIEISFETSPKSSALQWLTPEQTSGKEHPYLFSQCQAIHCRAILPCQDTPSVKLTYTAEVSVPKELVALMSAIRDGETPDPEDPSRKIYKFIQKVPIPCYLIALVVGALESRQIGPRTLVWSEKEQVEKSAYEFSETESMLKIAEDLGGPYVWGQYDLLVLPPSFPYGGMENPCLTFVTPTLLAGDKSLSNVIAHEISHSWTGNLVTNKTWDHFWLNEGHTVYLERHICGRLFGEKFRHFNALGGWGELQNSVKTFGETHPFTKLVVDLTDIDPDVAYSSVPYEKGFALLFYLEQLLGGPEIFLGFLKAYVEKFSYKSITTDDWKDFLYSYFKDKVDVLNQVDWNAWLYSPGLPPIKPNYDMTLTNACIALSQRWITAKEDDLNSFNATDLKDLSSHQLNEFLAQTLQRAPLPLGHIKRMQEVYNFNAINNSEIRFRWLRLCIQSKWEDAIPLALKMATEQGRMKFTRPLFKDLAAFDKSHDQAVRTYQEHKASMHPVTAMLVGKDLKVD
In words: Inhibition of epoxide hydrolase activity of human recombinant leukotriene A4 hydrolase expressed in Escherichia coli assessed as LTB4 production at 100 uM by RP-HPLC.

The target of assay [3] is T1, Polyunsaturated fatty acid 5-lipoxygenase. The assay is described as follows: Inhibition of human 5-LOX in A23187-induced human whole blood assessed as reduction in LTB4 production pre-incubated for 20 mins before A23187 addition by enzyme immunoassay.
Assay [4] addresses T3, Prostaglandin E synthase (Homo sapiens, UniProt O14684).
T3 sequence (O14684 whole entry): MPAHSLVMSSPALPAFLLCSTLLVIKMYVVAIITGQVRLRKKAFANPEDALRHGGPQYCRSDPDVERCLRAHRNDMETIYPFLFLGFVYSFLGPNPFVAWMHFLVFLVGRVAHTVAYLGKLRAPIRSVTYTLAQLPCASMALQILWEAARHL
In words: Inhibition of mPGES1 in LPS-stimulated human whole blood assessed as reduction in PGE2 production incubated for 24 hrs at 37 degC by enzyme immunoassay.

For assay [5], the target named is T3, Prostaglandin E synthase. The assay is described as follows: Inhibition of mPGES1 expressed in Escherichia coli Rosetta-DE3 assessed as reduction in PGE2 production by enzyme immunoassay based cell-free system assay.
The target in assay [6] is Prostaglandin G/H synthase 1 (Homo sapiens) (UniProt P23219). In words: Inhibition of purified COX1 assessed as formation of oxidized TMPD during reduction of PGG2 to PGH2 preincubated for 15 mins by chromogenic assay.
Sequence of Prostaglandin G/H synthase 1 (Homo sapiens) (P23219 whole entry): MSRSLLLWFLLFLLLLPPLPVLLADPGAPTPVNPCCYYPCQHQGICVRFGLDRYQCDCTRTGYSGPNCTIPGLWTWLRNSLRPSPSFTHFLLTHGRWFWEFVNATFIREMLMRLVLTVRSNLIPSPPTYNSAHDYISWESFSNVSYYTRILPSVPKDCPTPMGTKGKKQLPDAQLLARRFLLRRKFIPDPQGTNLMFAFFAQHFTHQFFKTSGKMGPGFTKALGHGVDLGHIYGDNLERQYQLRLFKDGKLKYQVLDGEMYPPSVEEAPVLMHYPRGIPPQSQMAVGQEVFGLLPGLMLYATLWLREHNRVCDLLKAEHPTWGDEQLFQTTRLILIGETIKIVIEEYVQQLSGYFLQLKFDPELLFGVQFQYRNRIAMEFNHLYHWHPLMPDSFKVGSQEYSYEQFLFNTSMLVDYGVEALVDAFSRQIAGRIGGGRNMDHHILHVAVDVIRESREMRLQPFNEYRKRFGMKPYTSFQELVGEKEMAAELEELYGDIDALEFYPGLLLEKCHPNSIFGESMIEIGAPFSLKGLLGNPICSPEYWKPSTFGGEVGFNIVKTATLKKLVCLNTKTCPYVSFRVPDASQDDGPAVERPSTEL
For assay [7], the target named is T4, Prostaglandin G/H synthase 2 (Homo sapiens) (UniProt P35354).
T4 sequence (whole entry): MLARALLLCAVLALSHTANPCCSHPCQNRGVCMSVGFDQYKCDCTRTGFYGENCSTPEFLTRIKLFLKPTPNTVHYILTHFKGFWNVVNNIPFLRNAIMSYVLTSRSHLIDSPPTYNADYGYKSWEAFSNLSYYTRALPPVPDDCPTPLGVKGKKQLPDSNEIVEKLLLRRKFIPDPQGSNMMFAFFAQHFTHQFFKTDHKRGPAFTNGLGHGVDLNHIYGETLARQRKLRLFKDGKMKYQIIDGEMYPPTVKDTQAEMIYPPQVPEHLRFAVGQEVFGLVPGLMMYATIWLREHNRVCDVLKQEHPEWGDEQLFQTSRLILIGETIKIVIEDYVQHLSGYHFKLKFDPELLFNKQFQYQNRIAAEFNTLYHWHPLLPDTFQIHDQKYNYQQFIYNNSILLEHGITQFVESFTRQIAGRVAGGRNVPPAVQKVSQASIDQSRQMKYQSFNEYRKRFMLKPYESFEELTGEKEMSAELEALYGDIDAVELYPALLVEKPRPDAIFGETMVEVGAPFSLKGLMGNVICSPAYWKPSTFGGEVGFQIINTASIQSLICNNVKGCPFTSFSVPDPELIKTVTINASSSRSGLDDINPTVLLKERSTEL
The assay is described as follows: Inhibition of purified COX2 assessed as formation of oxidized TMPD during reduction of PGG2 to PGH2 preincubated for 15 mins by chromogenic assay.

Regarding `CCOc1ccc(S(=O)(=O)N(CC(=O)N2CCc3ccccc3C2)c2ccccc2)cc1`, the IC50 in assay [1] was 29 µM; in assay [3], above 100 µM. For the same compound, the inhibition in assay [2] is below 50%.
For `Cc1cccc(N=C2NS(=O)(=O)c3cc([N+](=O)[O-])ccc32)c1`, the IC50 in assay [4] is 15.6 µM; in assay [1] it was 1.87 µM; in assay [3], 9.7 µM; in assay [5], 6.7 µM.
`O=C(NC1c2ccccc2Oc2ccccc21)c1ccc(Cl)c([N+](=O)[O-])c1`: the results for the IC50 in assay [1] and in assay [3] were 67 µM and above 100 µM, respectively. Also, the inhibition in assay [2] is below 50%.
For `c1ccc2c(c1)OCC(c1nn3c(Cn4nnc5ccccc54)nnc3s1)O2` (stereo not drawn), the IC50 in assay [1] is 97 µM; in assay [3], above 100 µM. The inhibition in assay [2] was below 50%.
The like results for `Cc1nn(Cc2ccc(F)cc2)c(C)c1NC(=O)C1CC(c2cccc(Br)c2)=NO1` (stereo not drawn) were, in that order, 65 µM, above 100 µM and below 50%.
For the compound `Cc1ccc(Sc2nc([N+](=O)[O-])nn2CC(=O)c2ccccc2)cc1`, the figures for the IC50 in assay [1] and in assay [3] were 1.4 µM and 76 µM, respectively. Besides, in assay [2], the inhibition was below 50%.
Take `CCOc1cc(/C=N\Nc2nc3ccccc3s2)cc([N+](=O)[O-])c1O`: the IC50 is 0.86 µM in assay [1] and 40 µM in assay [3]. The inhibition in assay [2] was below 50%.
As for `N#C/C(=C(/O)c1ccc(Cl)c([N+](=O)[O-])c1)c1nc2ccccc2s1`, the IC50 in assay [1] was 53 µM; in assay [3], above 100 µM. Also, the inhibition in assay [2] is below 50%.
On to `CC(C)(C)OC(=O)NNS(=O)(=O)c1cccc([N+](=O)[O-])c1`, for which the results for the IC50 in assay [1] and in assay [3] were 81 µM and above 100 µM, respectively. Besides, the inhibition in assay [2] is below 50%.
As to `Cc1ccc2cccc(OC(=O)c3cccc([N+](=O)[O-])c3)c2n1`, the figures for the IC50 in assay [1] and in assay [3] were 4.6 µM and above 100 µM, respectively. Moreover, the inhibition in assay [2] is below 50%.
As for `Cc1cc(Cl)ccc1NC(=O)Cn1nnc2sc3c(c2c1=O)CCCC3`, the IC50 in assay [1] was 44 µM; in assay [3], above 100 µM. In addition, the inhibition in assay [2] is below 50%.
For `C/C(NCc1ccc(Cl)c(Cl)c1)=C1\C(=O)N(c2nc3ccccc3s2)N=C1C(F)(F)F` the same measures were 70 µM, above 100 µM and below 50%.
`Clc1ccc(-c2nn3c(Cc4ccccc4)nnc3s2)cc1Cl`: the IC50 in assay [1] was 37.5 µM; in assay [3] it was above 100 µM. Also, in assay [2], the inhibition is below 50%.
In the case of `COc1ccc(/C=C2\N=C(c3ccc(Cl)c([N+](=O)[O-])c3)OC2=O)c(OC)c1OC`, the IC50 in assay [1] was 20 µM; in assay [3] it was above 100 µM. Also, the inhibition in assay [2] is below 50%.
In the case of `O=c1/c(=C/c2cc(I)c(O)c([N+](=O)[O-])c2)sc2nc3ccccc3n12`, the half-inhibitory concentration (IC50) in assay [1] was 33.8 µM; in assay [3], above 100 µM. In addition, in assay [2], the inhibition is below 50%.
The like results for `O=C(COC(=O)c1ccc(C(=O)c2ccc([N+](=O)[O-])cc2)cc1)c1ccccc1` were, in that order, 1.49 µM, 48 µM and below 50%.
With `O=C(CSc1nnnn1-c1ccc(Cl)c(C(=O)O)c1)Nc1ccc(F)cc1`, the figures for the IC50 in assay [1] and in assay [3] were 15 µM and above 100 µM, respectively. In addition, in assay [2], the inhibition was below 50%.
In the case of `c1ccc(SCc2nnc3sc(-c4ccc5c(c4)OCCO5)nn23)cc1`, the concentration for half-maximal inhibition (IC50) in assay [1] was 70 µM; in assay [3], above 100 µM. In addition, in assay [2], the inhibition was below 50%.
The like results for `Cc1cccc(C2=N/C(=C\c3ccc(-c4cccc(Cl)c4)o3)C(=O)O2)c1` were, in that order, 14.2 µM, above 100 µM and below 50%.
As to `O=C(O/N=C/c1ccc(Br)cc1)c1cc([N+](=O)[O-])cc([N+](=O)[O-])c1`, the concentration for half-maximal inhibition (IC50) in assay [1] came out at 0.62 µM; in assay [3], 36 µM. Also, the inhibition in assay [2] was below 50%.
Consider `Cc1cccc(NC2=NS(=O)(=O)c3cc([N+](=O)[O-])ccc32)c1`, for which the inhibition in assay [2], in assay [6] and in assay [7] was below 50% throughout.
Consider `O=C1c2ccc([N+](=O)[O-])cc2C(=O)N1CNc1ccc([N+](=O)[O-])cc1`, for which the IC50 in assay [1] turned out to be 5.3 µM; in assay [3], 38 µM. In assay [2], the inhibition is below 50%.
The like results for `O=[N+]([O-])c1ccc(Cl)c(S(=O)(=O)n2cnc3ccccc32)c1` were, in that order, 6.9 µM, 8.1 µM and below 50%.
For `Cn1ncc(Cl)c1C(=O)N/N=C/c1ccccc1OC(=O)c1ccc([N+](=O)[O-])cc1`, the figures for the IC50 in assay [1] and in assay [3] were 5.4 µM and above 100 µM, respectively. Moreover, in assay [2], the inhibition was below 50%.
For the compound `COc1ccc(-c2nnc3sc(/C=C/c4ccccc4OC)nn23)cc1`, the figures for the IC50 in assay [1] and in assay [3] were 17 µM and above 100 µM, respectively. Besides, the inhibition in assay [2] was below 50%.
In the case of `O=C1OC(c2ccc3ccccc3c2)=N/C1=C\c1ccc(Cl)cc1`, the IC50 in assay [1] was 80 µM; in assay [3], above 100 µM. Further, the inhibition in assay [2] was below 50%.
For the compound `COc1cc(Cl)cc(/C=C2/SC(=O)N(Cc3ccc(F)cc3)C2=O)c1O`, the half-maximal inhibitory concentration (IC50) in assay [1] is 68 µM; in assay [3] it was above 100 µM. In addition, the inhibition in assay [2] is below 50%.
`O=C(NCCNC(=O)c1ccc([N+](=O)[O-])o1)c1ccc2ccccc2n1`: the IC50 in assay [1] is 82 µM; in assay [3], above 100 µM. Besides, the inhibition in assay [2] was below 50%.
Take `COC(=O)c1ccc(NC(=S)NC(=O)c2cc(-c3ccccc3)nc3ccccc23)cc1`: the IC50 is 45 µM in assay [1] and above 100 µM in assay [3]. Moreover, the inhibition in assay [2] is below 50%.
For `O=[N+]([O-])c1ccc(CSc2cc3ccccc3[nH]2)c([N+](=O)[O-])c1` the same measures were 0.8 µM, 23.9 µM and below 50%.
For the compound `O=C(Oc1cccc2ccccc12)c1cc([N+](=O)[O-])cc([N+](=O)[O-])c1`, the half-inhibitory concentration (IC50) in assay [4] was 7.6 µM; in assay [1], 1.04 µM; in assay [3], 8.6 µM; in assay [5] it was 3.6 µM. Besides, the inhibition in assay [2], in assay [6] and in assay [7] was below 50% each time.
